For test [1], the system named is acute myocardial infarction. As to the kind of experiment: Infarct size at revascularization in acute myocardial infarction patients. It counts as in vivo, human. To be noted: IV at the time of reperfusion. From the text: Men and women, 18 years of age or older, who present after the onset of chest pain, and for whom the clinical decision is made to treat with a revascularization procedure (e.g., PCI or thrombolytics) will be eligible for enrollment. […] The diagnosis is made therefore purely on the basis of symptoms, clinical examination and ECG changes. […] The patient often has a history of having experienced angina, but the ECG at the time of the suspected attack may show no abnormality at all. […] Left ventricular and coronary angiography will be performed with the use of standard techniques, just before revascularization. Revascularization will be performed by PCI with the use of direct stenting. […] The primary end point is the size of the infarct as assessed by measurements of cardiac biomarkers. […] Coronary biomarkers will be measured in each patient. For example, the area under the curve (AUC) (expressed in arbitrary units) for creatine kinase and troponin I release (Beckman kit) may be measured in each patient by computerized planimetry. The principal secondary end point is the size of the infarct as measured by the area of delayed hyperenhancement that is seen on cardiac magnetic resonance imaging (MRI), assessed on day 5 after infarction. […] The images are analyzed in short axis slices covering the entire left ventricle. […]

Another test relates to transplant patients. The experiment in a line: Cyclosporine nephrotoxicity and organ health in transplant patients. Type of test: in vivo, human. To be noted: subjects receiving cyclosporine. The text has this: To prevent organ or tissue rejection after transplant, patients often receive a regimen of the immunosuppressive drug cyclosporine. Cyclosporine levels are established and maintained in the subject at levels to effectively suppress the immune system. However, nephrotoxicity is a concern for these subjects, and the level of the drug in the subject's blood is monitored carefully. Cyclosporine doses are adjusted accordingly in order to not only prevent rejection, but also to deter these potentially damaging side effects. Typically, an adult transplant patient receives cyclosporine as follows: IV: 2 to 4 mg/kg/day IV infusion once daily over 4 to 6 hours, or 1 to 2 mg/kg IV infusion twice a day over 4 to 6 hours, or 2 to 4 mg/kg/day as a continuous IV infusion over 24 hours. Capsules: 8 to 12 mg/kg/day orally in 2 divided doses. Solution: 8 to 12 mg/kg orally once daily. In some patients, doses can be titrated downward with time to maintenance doses as low as 3 to 5 mg/kg/day. […]
Transplant subjects receiving cyclosporine pursuant to standard pre- and post-transplant procedures will be divided into groups. […] Subjects will be monitored for health and function of the transplanted tissue or organ, as well as the incidence and severity of nephrotoxicity often seen with prolonged cyclosporine administration.

Another test relates to high-fat fed rats. As to the kind of experiment: Example 33: ROS production and redox state in rats fed a high-fat diet. Type of test: in vivo, rat.
In test [2] the test system is Isolated guinea pig hearts. The experiment in a line: Example 15: organ preservation in cardioplegic solution. To be noted: added to cardioplegic solution; 90 minutes ischemia, 60 minutes reperfusion. How it is done:
Isolated guinea pig hearts will be perfused in a retrograde fashion with an oxygenated Krebs-Henseleit solution at 34° C. After 30 minutes of stabilization, the hearts will be perfused with a cardioplegic solution (CPS; St. Thomas) alone or in the presence of peptide conjugates (100 nM); aromatic-cationic peptides (an equivalent molar dose of aromatic-cationic peptide based on the concentration of the aromatic-cationic peptide administered in the peptide conjugate treatment group); SPN10(s) (an equivalent molar dose of SPN10 based on the concentration of SPN10 administered in the peptide conjugate treatment group); or SPN10(s) in combination with aromatic-cationic peptides (e.g., an equivalent molar dose of SPN10 based on the concentration of SPN10 administered in the peptide conjugate treatment group and an equivalent molar dose of aromatic-cationic peptide based on the concentration of aromatic-cationic peptide administered in the peptide conjugate treatment group) for 3 minutes. Global ischemia will then be induced by complete interruption of coronary flow and maintained for 90 minutes. Reperfusion will be performed for 60 minutes with oxygenated Krebs-Henseleit solution. Contractile force, heart rate, and coronary flow will be monitored continuously throughout the procedure.

SMILES strings stand for the structures. Residues, ends and D or L forms follow the SMILES beside them.

Description for high-fat fed rats: Ten rats maintained on a high-fat diet will receive daily intraperitoneal injections of peptide conjugates (1.5 mg/kg); aromatic-cationic peptides (an equivalent molar dose of aromatic-cationic peptide based on the concentration of the aromatic-cationic peptide administered in the peptide conjugate treatment group); SPN10(s) (an equivalent molar dose of SPN10 based on the concentration of SPN10 administered in the peptide conjugate treatment group); or SPN10(s) in combination with aromatic-cationic peptides (e.g., an equivalent molar dose of SPN10 based on the concentration of SPN10 administered in the peptide conjugate treatment group and an equivalent molar dose of aromatic-cationic peptide based on the concentration of aromatic-cationic peptide administered in the peptide conjugate treatment group) dissolved in phosphate-buffered saline. Dose response curves for peptide conjugates, aromatic-cationic peptides and SPN10(s) with or without aromatic-cationic peptides will be established in vitro and in vivo. Mitochondrial function will be measured according to the methods described herein.
Next, rats will be placed on a high-fat diet (60%) for six weeks with daily administration of vehicle, peptide conjugates, aromatic-cationic peptides, or SPN10(s) with or without aromatic-cationic peptides.
Protein homogenates will be prepared by homogenizing 100 mg of frozen muscle in a buffer containing 10 mM Tris, 1 mM EDTA, 1 mM EGTA, 2 mM NaOrthovanadate, 2 mM NaPyrophosphate, 5 mM NaF, and protease inhibitor cocktail (Complete), at pH 7.2. After homogenization, 1% Triton X-100 will be added to the protein suspension, which will be vortexed and incubated on ice for 5 minutes. Samples will be centrifuged at 10,000 rpm for 10 minutes to pellet the insoluble debris. For GSSG measurement, tissue will be homogenized in a solution containing 20 mM Methyl-2-vinylpyridinium triflate to scavenge all reduced thiols in the sample. Total GSH and GSSG will be measured using a commercially available GSH/GSSG assay (Oxis Research Products, Percipio Biosciences, Foster City, CA, U.S.A).
To establish a link between the increased mitochondrial H2O2 production brought about by high-fat diet and its effect on overall redox environment of skeletal muscle, both GSH and GSSG will be measured in skeletal muscle from standard chow-fed and high-fat fed rats 1) following a 10 hour fast, and 2) 1 hour after administration of a standard glucose load (oral gavage, 10 hour fasted).

On to `N=C(N)NCCC[C@H](NC(=O)[C@@H](N)Cc1c[nH]c2ccccc12)C(=O)N[C@@H](Cc1c[nH]c2ccccc12)C(=O)N[C@@H](CCCCN)C(N)=O` [SPN10, H-L-Trp-L-Arg-L-Trp-L-Lys-NH2] (H-WRWK-NH2), for which the “infarct size versus placebo” value in test [1] was “smaller infarct”. Further, in the test with transplant patients, the “health of transplanted organ or tissue, cyclosporine dosage maintained” value was “healthier transplanted organ or tissue”. Further, the “GSH/GSSG ratio in skeletal muscle” value in the test with high-fat fed rats (even following glucose ingestion) is reported as “preserve the GSH/GSSG ratio near control levels”. The “mitochondrial H2O2 production during succinate and palmitoyl-carnitine supported respiration” value in the test with high-fat fed rats (high-fat diet (60%) six weeks, daily administration) was “reduction in mitochondrial H2O2 production”. Also, the “mitochondrial H2O2 production during succinate-supported respiration (dose response curves)” value in the test on high-fat fed rats (in vitro and in vivo) is recorded as “reduction in mitochondrial H2O2 production”. In addition, the “reduction in total cellular glutathione content (GSHt) by high-fat feeding” value with high-fat fed rats (skeletal muscle) is “irrespective of treatment”. In addition, in test [2], the “contractile function after prolonged ischemia” value was “significantly enhance contractile function”.

The values are drawn from patent US20240108740A1, “THERAPEUTIC COMPOSITIONS INCLUDING SPN10 AND USES THEREOF” (Stealth BioTherapeutics Inc., priority 2022, published 2024).
